Where two headings read alike, the source gives them in different places.
Columns and labels:
Plutella xylostella [1] = assay: whole plant or invertebrate; assay type: in vivo
Description: (§1) After an air drying process, second instar larvae were released thereto. […] The test was performed in duplicate.
(§2) Method for Judging Synergistic Effects

[2] = test system: Haemaphysalis longicornis; assay: whole plant or invertebrate; assay type: in vivo; settings: for mortality at 0.00038 mg: read-out: Mortality of single agent against Haemaphysalis longicornis, single agent 0.38 μg
Description: A capsule with a diameter of 2 cm and a height of 2 cm was attached to the dorsal surface of a mouse. A compound of Formula (I), ivermectin, moxidectin, permethrin, amitraz, fipronil, spinetram and the mixture of the compound of Formula (I) and each insecticide were dissolved in ethanol at the concentrations given in […], and each of these was dripped onto the surface of a mouse body within a capsule. After thorough drying, eight Haemaphysalis longicornis nymphs were released and the top of the capsule was sealed with a lid. The mouse was kept in a cage at 25° C. using a 12-hour light period and a 12-hour dark period. Five days after the release, the capsule was removed and the number of surviving and dead nymphs and the number of engorged individuals were counted and the insect mortality and agonal rate was calculated by the following equation. Insect mortality and agonal rate (%)={number of dead and agonal insects/(number of survived insects+number of dead and agonal insects)}×100

Spodoptera litura = assay: whole plant or invertebrate; assay type: in vivo
Description: After an air drying process, third instar larvae were released thereto. […] The test was performed in duplicate.
as §2

Chilo suppressalis = assay type: in vivo; settings: soil irrigation, six days after release
Description: After standing for 3 days, second instar larvae were released thereto. […] The test was performed in duplicate.
as §2

Laodelphax striatella [3] = assay: whole plant or invertebrate; settings: for mortality at 0.05 mg/seedling: read-out: Mortality of single agent against Laodelphax striatella, single agent 0.05 mg/Seedling; for mortality at 0.005 mg/seedling: read-out: Mortality of single agent against Laodelphax striatella, single agent 0.005 mg/Seedling; for Theoretical value by Colby's equation: Laodelphax striatella soil irrigation
Description: (§3) After the rice seedling was left to stand for 3 days, second instar larvae were released thereto. Thereafter, the larvae were left to stand in a thermostatic chamber (16 hours of light period-8 hours of dark period) at 25° C. […] The test was performed in duplicate. Mortality of larvae (%)={number of dead larvae/(number of survived larvae+number of dead larvae)}×100
B: 100−(mortality of larvae or adults when treated only with each of imidacloprid, fipronil, chlorantraniliprole, spinosad, clothianidin, dinotefuran, sulfoxaflor, pymetrozine, thiamethoxam, flupyradifurone and cycloxaprid))
as §2
When the mortality against Laodelphax striatella in the case of a mixture with another agent exceeded the theoretical value by the Colby's equation, a synergistic effect was judged to be present.

Aphis gossypii = assay: Reference Test Example 3 Pest control test of Aphis gossypii (foliar treatment, single agent); assay type: in vivo; set-up: Aphis gossypii (Reference Test Example 3), mortality of larvae: concentration or dose not given beside the values; settings: foliar treatment, single agent
Plutella xylostella [4] = assay: Reference Test Example 1 Pest control test of Plutella xylostella (foliar treatment, single agent); assay type: in vivo; set-up: Plutella xylostella (Reference Test Example 1), mortality of larvae: concentration or dose not given beside the values; settings: foliar treatment, single agent
Text: After an air drying process, second instar larvae were released thereto. […] Test in duplicate.

Laodelphax striatella [5] = assay: Reference Test Example 18 Pest control test of Laodelphax striatella (wheat seedling root treatment); assay type: in vivo; settings: wheat seedling roots treated; four days after release; 20 μg/seedling
Description: The drug was absorbed from the roots for 72 hours, and then ten second instar larvae of Laodelphax striatella were each released thereto. […] The test was performed in duplicate.

rice blast = assay type: in vivo; settings: single agent 0.5 ppm; foliar application; fourteen days after inoculation
[6] = test system: Frankliniella occidentalis; assay: whole plant or invertebrate
Description: as §3, with “an air drying process, first” for “the rice seedling was left to stand for 3 days, second”
(A: 100−(mortality of larvae or adults when treated only with Compound P212)
B: 100−(mortality of larvae or adults when treated with only the insecticide imidacloprid, dinotefuran, or acetamiprid))
as §2
When the mortality against Frankliniella occidentalis in the case of a mixture with another agent exceeded the theoretical value given by Colby's equation, a synergistic effect was judged to be present.

Laodelphax striatella [7] = assay: whole plant or invertebrate; assay type: in vivo
Description: as §1, §2

Rhizoctonia solani = assay: Test Example 12 Test of control of rice sheath blight (Rhizoctonia solani); assay type: in vivo; settings: single agent 5 ppm; foliar spray; six days after inoculation
[8] = Haemaphysalis longicornis, topical, 120 h, capsule on mouse, five days, mortality and agonal rate
[9] = Laodelphax striatellus, soil, 72 h, soil irrigation
[10] = Laodelphax striatellus, foliar, 72 h, read-out: Mortality of single agent against Laodelphax striatella

Compound: O=c1c(-c2ccccc2)c([O-])[n+](Cc2ccc(Cl)nc2)c2ccccn12 [1-((6-chloropyridin-3-yl)methyl)-4-oxo-3-phenyl-4H-pyrido[1,2-a]pyrimidin-1-ium-2-olate]
- mortality at 1 ppm (Plutella xylostella [1]; Plutella xylostella, foliar, 72 h, read-out: Mortality of single agent against Plutella xylostella, single agent 1 ppm, cabbage leaf disk spray, three days): 30%
- Theoretical value by Colby's equation (Plutella xylostella [1]; Plutella xylostella, single agent 1 ppm (other component 0)): 30%

Compound: Cc1ccc(/N=C/N(C)/C=N/c2ccc(C)cc2C)c(C)c1 [Amitraz]
- mortality at 0.00038 mg [2, 8]: 41%

Compound: CNC(=O)c1cc(Cl)cc(C)c1NC(=O)c1cc(Br)nn1-c1ncccc1Cl [Chlorantraniliprole]
- Theoretical value by Colby's equation (Spodoptera litura; 0.02 ppm): 20%
- mortality at 0.02 ppm (Spodoptera litura; Spodoptera litura, foliar, 72 h, read-out: Mortality of single agent against Spodoptera litura, single agent 0.02 ppm, cabbage leaf disk spray, three days): 20%
- Mortality of single agent against Chilo suppressalis (Chilo suppressalis; single agent 0.0005 mg/seedling): 60%
- mortality at 0.05 mg/seedling (Laodelphax striatella [3]; [9]): 9%
- Theoretical value by Colby's equation (Plutella xylostella [1]; 0.002 ppm): 60%
- mortality at 0.002 ppm (Plutella xylostella [1]; Plutella xylostella, foliar, 72 h, read-out: Mortality of single agent against Plutella xylostella, single agent 0.002 ppm, cabbage leaf disk spray, three days): 60%

Compound: CN/C(=N\[N+](=O)[O-])NCc1cnc(Cl)s1 [Clothianidin]
- mortality at 0.005 mg/seedling (Laodelphax striatella [3]; [9]): 23%

Compound: O=C(N=c1ccccn1Cc1cnc(Cl)nc1)C(F)(F)F [Compound P-243]
- Aphis gossypii (Reference Test Example 3), mortality of larvae (Aphis gossypii): 100%
- Plutella xylostella (Reference Test Example 1), mortality of larvae (Plutella xylostella [4]): 100%
- Laodelphax striatella (Reference Test Example 18), mortality of larvae (Laodelphax striatella [5]): 100%

Compound: CNC(=O)c1cc(C#N)cc(C)c1NC(=O)c1cc(Br)nn1-c1ncccc1Cl [Cyantraniliprole]
- Mortality of single agent against Chilo suppressalis (Chilo suppressalis; single agent 0.005 mg/seedling): 83%

Compound: O=[N+]([O-])C1=C2N(Cc3ccc(Cl)nc3)CCN2[C@H]2CC[C@@H]1O2 [Cycloxaprid]
- Theoretical value by Colby's equation (Laodelphax striatella [3]; single agent 0.005 mg/Seedling (other component 0)): 0%
- Mortality of single agent against Laodelphax striatella (Laodelphax striatella [3]; single agent 0.005 mg/Seedling, soil irrigation): 0%

Compound: C[C@@H](NC(=O)C(C#N)C(C)(C)C)c1ccc(Cl)cc1Cl (stereo partly drawn) [Diclocymet]
- Preventive value (Rice blast test, number of lesions) (rice blast): 8

Compound: CN/C(=N/CC1CCOC1)N[N+](=O)[O-] (stereo not drawn) [Dinotefuran]
- Theoretical value by Colby's equation ([6]; 5 ppm): 35%
- mortality at 5 ppm ([6]; Frankliniella occidentalis, foliar, 72 h, read-out: Mortality of single agent against Frankliniella occidentalis): 35%
- mortality at 0.005 mg/seedling (Laodelphax striatella [3]; [9]): 0%

Compound: CCOc1ccc(C(C)(C)COCc2cccc(Oc3ccccc3)c2)cc1 [Etofenprox]
- mortality at 10 ppm (Laodelphax striatella [7]; [10]): 30%
- Theoretical value by Colby's equation (Laodelphax striatella [7]; foliar, 10 ppm): 30%

Compound: CCc1nc2cc(C)c(Oc3ccc(OC(F)(F)F)cc3)cc2c(OC(=O)OC)c1C [Flometoquin]
- Theoretical value by Colby's equation (Spodoptera litura; Spodoptera litura, single agent 5 ppm (other component 0)): 10%
- Mortality of single agent against Spodoptera litura (Spodoptera litura; single agent 5 ppm, cabbage leaf disk spray, three days): 10%
- Theoretical value by Colby's equation (Plutella xylostella [1]; Plutella xylostella, single agent 0.313 ppm (other component 0)): 0%
- Mortality of single agent against Plutella xylostella (Plutella xylostella [1]; single agent 0.313 ppm, cabbage leaf disk spray, three days): 0%

Compound: O=C1C=C(N(Cc2ccc(Cl)nc2)CC(F)F)CO1 [Flupyradifurone]
- Theoretical value by Colby's equation (Laodelphax striatella [3]; single agent 0.01 mg/Seedling (other component 0)): 5%
- Mortality of single agent against Laodelphax striatella (Laodelphax striatella [3]; single agent 0.01 mg/Seedling, soil irrigation): 5%

Compound: Cc1nn(C)c(Cl)c1C(=O)Nc1cccc2c1C(C)OC2(C)C (stereo not drawn) [Furametpyr]
- Preventive value (Sheath blight test, lesion height) (Rhizoctonia solani): 77

Compound: N#Cc1ccccc1NC(=O)c1snc(Cl)c1Cl [Isotianil]
- Preventive value (Rice blast test, number of lesions) (rice blast): 66
- Theoretical value by Colby's equation (Laodelphax striatella [3]; single agent 0.5 mg/Seedling (other component 0)): 5%
- Mortality of single agent against Laodelphax striatella (Laodelphax striatella [3]; single agent 0.5 mg/Seedling, soil irrigation): 5%

Compound: CC[C@H](C)[C@H]1O[C@]2(CC[C@@H]1C)C[C@@H]1C[C@@H](C/C=C(\C)[C@@H](O[C@H]3C[C@H](OC)[C@@H](O[C@H]4C[C@H](OC)[C@@H](O)[C@H](C)O4)[C@H](C)O3)[C@@H](C)/C=C/C=C3\CO[C@@H]4[C@H](O)C(C)=C[C@@H](C(=O)O1)[C@]34O)O2 [Ivermectin]
- Mortality of single agent against Haemaphysalis longicornis ([2]; single agent 0.009 μg, capsule on mouse, five days, mortality and agonal rate): 3%

Compound: C[C@H]1O[C@H](O[C@H]2[C@H](O)[C@@H](O)[C@@H](O)[C@H](O)[C@@H]2O)[C@@H](N)C[C@@H]1NC(=N)C(=O)O [Kasugamycin]
- Preventive value (Rice blast test, number of lesions) (rice blast): 0

Compound: CO/N=C1\C[C@]2(C[C@@H]3C[C@@H](C/C=C(\C)C[C@@H](C)/C=C/C=C4\CO[C@@H]5[C@H](O)C(C)=C[C@@H](C(=O)O3)[C@]45O)O2)O[C@H](/C(C)=C/C(C)C)[C@H]1C [Moxidectin]
- mortality at 9 ng ([2]; Haemaphysalis longicornis, topical, 120 h, read-out: Mortality of single agent against Haemaphysalis longicornis, single agent 0.009 μg, capsule on mouse, five days, mortality and agonal rate): 6%

Compound: O=C(Nc1ccccc1)N(Cc1ccc(Cl)cc1)C1CCCC1 [Pencycuron]
- Preventive value (Sheath blight test, lesion height) (Rhizoctonia solani): 69

Compound: CC1(C)C(C=C(Cl)Cl)C1C(=O)OCc1cccc(Oc2ccccc2)c1 (stereo not drawn) [Permethrin]
- mortality at 0.0095 mg ([2]; Haemaphysalis longicornis, topical, 120 h, read-out: Mortality of single agent against Haemaphysalis longicornis, single agent 9.5 μg, capsule on mouse, five days, mortality and agonal rate): 71%

Compound: CC1=NNC(=O)N(/N=C/c2cccnc2)C1 [Pymetrozine]
- mortality at 0.05 mg/seedling (Laodelphax striatella [3]; [9]): 15%

Compound: CCOc1ccc([Si](C)(C)CCCc2ccc(F)c(Oc3ccccc3)c2)cc1 [Silafluofen]
- Mortality of single agent (Laodelphax striatella [7]; Laodelphax striatella foliar, single agent 5 ppm (other component 0)): 55%
- mortality at 5 ppm (Laodelphax striatella [7]; [10]): 55%

Compound: C[Si](C)(C)CC(O)(Cn1cncn1)c1ccc(F)cc1 (stereo not drawn) [Simeconazole]
- Preventive value (Sheath blight test, lesion height) (Rhizoctonia solani): 5

Compound: CC(c1ccc(C(F)(F)F)nc1)S(C)(=O)=NC#N (stereo not drawn) [Sulfoxaflor]
- mortality at 0.005 mg/seedling (Laodelphax striatella [3]; [9]): 1%

Compound: CC(=O)Oc1c(C)c(C)nc2c(F)cc(C(C)(C)C)cc12 [Tebufloquin]
- Preventive value (Rice blast test, number of lesions) (rice blast): 48

Compound: CN1COCN(Cc2cnc(Cl)s2)/C1=N\[N+](=O)[O-] [Thiamethoxam]
- mortality at 0.01 mg/seedling (Laodelphax striatella [3]; Laodelphax striatellus, soil, 72 h, read-out: Mortality of single agent against Laodelphax striatella, single agent 0.01 mg/Seedling, soil irrigation): 23%

Compound: Cc1nc(C(F)(F)F)c(C(=O)Nc2c(Br)cc(OC(F)(F)F)cc2Br)s1 [Thifluzamide]
- Preventive value (Sheath blight test, lesion height) (Rhizoctonia solani): 92

Compound: Cc1ccc(NC(=O)c2snnc2C)cc1Cl [Tiadinil]
- Preventive value (Rice blast test, number of lesions) (rice blast): 0
- mortality at 0.5 mg/seedling (Laodelphax striatella [3]; Laodelphax striatellus, soil, 72 h, read-out: Mortality of single agent against Laodelphax striatella, single agent 0.5 mg/Seedling, soil irrigation): 8%

Compound: Cc1cccc2sc3nncn3c12 [Tricyclazole]
- Preventive value (Rice blast test, number of lesions) (rice blast): 72

Compound: CN/C(=N/CC1CCOC1)N[N+](=O)[O-] (stereo not drawn) [dinotefuran]
- mortality at 0.0019 mg ([2]; Haemaphysalis longicornis, topical, 120 h, read-out: Mortality of single agent against Haemaphysalis longicornis, single agent 1.9 μg, capsule on mouse, five days, mortality and agonal rate): 0%

Compound: N#Cc1nn(-c2c(Cl)cc(C(F)(F)F)cc2Cl)c(N)c1[S+]([O-])C(F)(F)F (stereo not drawn) [fipronil]
- mortality at 0.00038 mg [2, 8]: 78%

Compound: CC(COc1ccc(Oc2ccccc2)cc1)Oc1ccccn1 (stereo not drawn) [pyriproxyfen]
- mortality at 47.5 ng ([2]; Haemaphysalis longicornis, topical, 120 h, read-out: Mortality of single agent against Haemaphysalis longicornis, single agent 0.0475 μg, capsule on mouse, five days, mortality and agonal rate): 2%

Compound: Emamectin benzoate
- Theoretical value by Colby's equation (Spodoptera litura; Spodoptera litura, single agent 0.02 ppm (other component 0)): 0%
- Mortality of single agent against Spodoptera litura (Spodoptera litura; single agent 0.02 ppm, cabbage leaf disk spray, three days): 0%

Compound: spinetoram
- Theoretical value by Colby's equation ([2]; Haemaphysalis longicornis, single agent 0.38 μg (other component 0)): 6%
- Mortality of single agent against Haemaphysalis longicornis ([2]; single agent 0.38 μg, capsule on mouse, five days, mortality and agonal rate): 6%

Compound: spinosad
- Theoretical value by Colby's equation ([2]; Haemaphysalis longicornis, single agent 1.9 μg (other component 0)): 2.5%
- Mortality of single agent against Haemaphysalis longicornis ([2]; single agent 1.9 μg, capsule on mouse, five days, mortality and agonal rate): 2.5%
